Test: xn = mol fraction of the nth substance listed
Settings: 298.15 K, 100 kPa

O=S(=O)([N-]S(=O)(=O)C(F)(F)F)C(F)(F)F.[Li+] + C1COCO1
Settings	electrical conductivity [S/m]	viscosity [mPa·s]
x1 = 8e-07	1.3e-05	–
x1 = 3.74e-06	3.1e-05	–
x1 = 8.82e-06	5e-05	0.58
x1 = 1.615e-05	6.8e-05	0.582
x1 = 2.378e-05	8.1e-05	0.583
x1 = 3.941e-05	0.000103	0.584
x1 = 8.444e-05	0.000138	0.585
x1 = 0.0001607	0.0002	0.588
x1 = 0.0004162	0.000398	0.589
x1 = 0.0007624	0.000536	0.591
x1 = 0.001538	0.000978	0.595
x1 = 0.002969	0.00173	0.608
x1 = 0.004513	0.00309	0.629
x1 = 0.005877	0.00459	0.633
x1 = 0.007354	0.00664	0.637
x1 = 0.01099	0.0164	0.661
x1 = 0.0146	0.0294	0.683
x1 = 0.02174	0.0659	0.758
x1 = 0.03572	0.169	0.905
x1 = 0.06897	0.446	1.388
x1 = 0.08475	0.563	1.684
x1 = 0.1	0.643	2.11
x1 = 0.1285	0.738	3.122
x1 = 0.1563	0.744	4.4
x1 = 0.1818	0.69	6.52
x1 = 0.2054	0.606	9.99
x1 = 0.2273	0.512	13.96
x1 = 0.2467	0.431	20.04
x1 = 0.2703	0.337	30.3

— the CheMixHub ionic liquid set
